In publication PMC12153356, “An antisense oligomer conjugate with unpredicted bactericidal activity against Fusobacterium nucleatum” (mBio, 2025):
Square brackets hold non-standard residues; d marks the D form. Peptide text beside a SMILES is read from it. Ahx = NCCCCCC(=O)O; βAla = NCCC(=O)O

Experiments:
[1] = test system: F. nucleatum subsp. nucleatum ATCC 23726 (FNN23); experiment: MIC determination and growth inhibition assay (broth microdilution, OD600 over time); type: cell-based, Fusobacterium nucleatum subsp. nucleatum ATCC 23726; details: MHB; for Growth inhibition of FNN23: 10 µM compound, 1 × 10^5 CFU/mL, growth inhibition = no visible growth (OD600 <0.01) after 120 h
Description: To test CPP-PNA conjugates for growth inhibition, we diluted mid-exponential phase cultures of FNN23 to 1 × 10^5 colony forming units (CFUs) per milliliter in Mueller-Hinton Broth (MHB) and incubated the diluted bacteria with 10 µM of either (KFF)3K- or (RXR)4XB- conjugated PNAs targeting acpP, ftsZ or gyrA. Growth was monitored over time by OD600 measurements, with growth inhibition defined as no visible growth (OD600 <0.01) after 120 h. […] Based on these findings, we conclude that CPP-PNAs targeting fusobacterial mRNAs are not effective in antisense inhibition.
(§1) The following fusobacterial strains were used in this study: Fusobacterium nucleatum subsp. nucleatum ATCC 23726 (FNN23) acquired from the American Type Culture Collection (ATCC), F. nucleatum subsp. nucleatum ATCC 25586 (FNN25), F. nucleatum subsp. vincentii ATCC 49256 (FNV), and F. nucleatum subsp. polymorphum ATCC 10953 (FNP) acquired from the German Collection of Microorganisms and Cell Culture (DSMZ), F. nucleatum subsp. animalis 7_1 (FNA) and F. periodonticum 2_1_31 (FPE) both received as a kind gift from E. Allen-Vercoe (University of Guelph, Canada). All strains were routinely grown at 37°C in 80:10:10 (N2:H2:CO2) anaerobic conditions on 2% agar supplemented BHI plates (BHI, 1% [wt:vol] dried yeast extract, 1% [vol:vol] 50% sterile-filtered glucose solution, 5 µg/mL of hemin; 1% [vol:vol] fetal bovine serum) from frozen 20% glycerol stocks kept at −80°C. For liquid growth, the strains were cultured in Columbia broth (ColB; BD Difco). Precultures were prepared 24 h before inoculating the working culture at a 1:50 dilution in fresh ColB until OD600 0.5 was reached. Cultures were then diluted in non-cation adjusted Mueller-Hinton Broth (MHB, BD Difco) to the desired CFU/mL number. P. gingivalis (DSM 20709) was purchased from DSMZ and grown at 37°C in anaerobic conditions as mentioned above on 2% agar supplemented BHI+ plates (BHI, 1% [wt:vol] dried yeast extract, 1% [vol:vol] 50% sterile filtered glucose solution, 5 µg/ml of hemin; 10% [vol:vol] fetal bovine serum; and 1 µg/mL vitamin K3) for 4 days. For liquid growth, P. gingivalis was cultured in BHI+ medium (BHI, BD Difco supplemented with 1% [vol:vol] 50% sterile-filtered glucose solution, 5 µg/mL of hemin; 1% [vol:vol] fetal bovine serum, and 1 µg/mL vitamin K3). Precultures were prepared 24 h before inoculating the working culture at a 1:20 dilution in BHI+ until OD600 of 0.5 was reached. All plates, media, buffers, and reagents were brought into the anaerobic chamber the day before usage to ensure full oxygen depletion.
To determine the MIC value, broth microdilutions were performed according to the standard protocol with some modifications ([119]). An overnight bacterial culture was diluted in a fresh ColB medium and grown to OD600 0.5 (mid-exponential phase). […] To determine the growth inhibition of P. gingivalis, an o.n. culture grown in BHI+ was diluted 1:1,500 in MHB to obtain 1 × 10^5 CFU/mL. E. coli K12, E. coli Nissle 1917, and S. enterica o.n. cultures grown in MHB were diluted 1:1,800 in fresh MHB to obtain 1 × 10^5 CFU/mL. In total, 190 µL of diluted bacterial cultures were pipetted into a transparent 96-well plate (Nunc, Thermo Fischer Scientific) together with 10 µL of respective 20× CPP or CPP-PNA stock or water as control. Bacterial growth was monitored by measuring OD600 every 20 min with constant shaking in a plate reader (Biotek) under the normal atmospheric environment or positioned in the anaerobic chamber with double orbital shaking every 20 min prior to each measurement with 237 cpm at 37°C for 120 h.

[2] = test system: F. nucleatum subsp. nucleatum ATCC 23726 (FNN23); experiment: Determination of bactericidal effect by CFU spot assay; type: cell-based, Fusobacterium nucleatum subsp. nucleatum ATCC 23726; details: 10 µM, 1 × 10^5 CFU/mL in MHB, spotting on BHI agar plates, up to 96 h, three replicates
Description: To investigate the bactericidal effects of PNAs an o.n. culture of FNN23 grown in ColB was diluted 1:50 in fresh ColB and grown to OD600 0.5. This culture was then diluted 1:2,500 to 1 × 10^5 CFU/mL in MHB, and 190 µL of the culture was dispensed into a transparent 96-well plate (Nunc, Thermo Fischer Scientific) together with 10 µL of respective 20× PNA stock or water and incubated at 37°C with 237 cpm shaking every 20 min. At the respective time points, 100 µL was taken out of the well, a 1:10 serial dilution series was prepared with 900 µL anoxic 1× PBS, and 5 µL of each dilution was spotted on BHI plates for CFU determination. Plates were incubated for 3 days at 37°C before taking out the plates of the anaerobic chamber for CFU counting.

[3] = test system: F. nucleatum subsp. nucleatum ATCC 25586 (FNN25); experiment: Growth inhibition assay; type: cell-based, Fusobacterium nucleatum subsp. nucleatum ATCC 25586; details: 10 µM, MHB, 1 × 10^5 CFU/mL input, three replicates; listed as sequence variant 1
Text: as §1, with “For liquid growth, P. gingivalis was cultured in BHI+ medium (BHI, BD Difco supplemented with 1% [vol:vol] 50% sterile-filtered glucose solution, 5 µg/mL of hemin; 1% [vol:vol] fetal bovine serum, and 1 µg/mL vitamin K3). Precultures were prepared 24 h before inoculating the working culture at a 1:20 dilution in BHI+ until OD600 of 0.5 was reached. All plates, media, buffers, and reagents were brought into the anaerobic chamber the day before usage to ensure full oxygen depletion.” left out
(§2) To determine the MIC value, broth microdilutions were performed according to the standard protocol with some modifications ([119]). […] Bacterial growth was monitored by measuring OD600 every 20 min with constant shaking in a plate reader (Biotek) under the normal atmospheric environment or positioned in the anaerobic chamber with double orbital shaking every 20 min prior to each measurement with 237 cpm at 37°C for 120 h.

[4] = test system: F. nucleatum subsp. animalis 7_1 (FNA); experiment: Growth inhibition assay; type: cell-based, Fusobacterium nucleatum subsp. animalis 7_1; details: 10 µM, MHB, 1 × 10^5 CFU/mL input, three replicates; listed as sequence variant 1
Text: as §1, with “For liquid growth, P. gingivalis was cultured in BHI+ medium (BHI, BD Difco supplemented with 1% [vol:vol] 50% sterile-filtered glucose solution, 5 µg/mL of hemin; 1% [vol:vol] fetal bovine serum, and 1 µg/mL vitamin K3). Precultures were prepared 24 h before inoculating the working culture at a 1:20 dilution in BHI+ until OD600 of 0.5 was reached. All plates, media, buffers, and reagents were brought into the anaerobic chamber the day before usage to ensure full oxygen depletion.” left out
as §2

[5] = test system: F. nucleatum subsp. polymorphum ATCC 10953 (FNP); experiment: Growth inhibition assay; type: cell-based, Fusobacterium nucleatum subsp. polymorphum ATCC 10953; details: 10 µM, MHB, 1 × 10^5 CFU/mL input, three replicates; listed as sequence variant 1
Text: as §1, with “For liquid growth, P. gingivalis was cultured in BHI+ medium (BHI, BD Difco supplemented with 1% [vol:vol] 50% sterile-filtered glucose solution, 5 µg/mL of hemin; 1% [vol:vol] fetal bovine serum, and 1 µg/mL vitamin K3). Precultures were prepared 24 h before inoculating the working culture at a 1:20 dilution in BHI+ until OD600 of 0.5 was reached. All plates, media, buffers, and reagents were brought into the anaerobic chamber the day before usage to ensure full oxygen depletion.” left out
as §2

[6] = test system: F. periodonticum 2_1_31 (FPE); experiment: Growth inhibition assay; type: cell-based, Fusobacterium periodonticum 2_1_31; details: 10 µM, MHB, 1 × 10^5 CFU/mL input, three replicates; listed as sequence variant 1
Text: as §1, with “For liquid growth, P. gingivalis was cultured in BHI+ medium (BHI, BD Difco supplemented with 1% [vol:vol] 50% sterile-filtered glucose solution, 5 µg/mL of hemin; 1% [vol:vol] fetal bovine serum, and 1 µg/mL vitamin K3). Precultures were prepared 24 h before inoculating the working culture at a 1:20 dilution in BHI+ until OD600 of 0.5 was reached. All plates, media, buffers, and reagents were brought into the anaerobic chamber the day before usage to ensure full oxygen depletion.” left out
as §2

[7] = test system: HeLa cells; details: cited from earlier work

## RXRRXRRXRRXRXB [(RXR)4XB-non-targeting-PMO, (RXR)4XB conjugated to non-targeting 11mer PMO …]
[1]; listed as (RXR)4XB-conjugated non-targeting PMO control
  Growth inhibition of FNN23: did not inhibit the growth

## N=C(N)NCCC[C@H](NC(=O)CCCCCNC(=O)[C@H](CCCNC(=N)N)NC(=O)[C@H](CCCNC(=N)N)NC(=O)CCCCCNC(=O)[C@H](CCCNC(=N)N)NC(=O)[C@H](CCCNC(=N)N)NC(=O)CCCCCNC(=O)[C@H](CCCNC(=N)N)NC(=O)[C@H](CCCNC(=N)N)NC(=O)CCCCCNC(=O)[C@@H](N)CCCNC(=N)N)C(=O)NCCCCCC(=O)NCCC(=O)O [(RXR)4XB, reference compound] (H-R[Ahx]RR[Ahx]RR[Ahx]RR[Ahx]R[Ahx][βAla]-OH; N-terminus and C-terminus assumed)
[2]
  Bactericidal effect (viable cells, CFU) on FNN23: no bactericidal effect

## KFFKFFKFFK [(KFF)3K-gyrA_11mer_2, (KFF)3K conjugated to 11mer PNA … targeting gyrA]
[1]; 10 µM (KFF)3K-PNA, 1 × 10^5 CFU/mL (Fig. 2C)
  Growth delay of FNN23: ~ 40 h
[1]; concentrations higher than 10 µM, 1 x 10^5 CFU per ml (Fig. S1C)
  Growth retardation of FNN23 at higher concentrations: did not lead to further growth retardation

## RXRRXRRXRRXRXB [FUS79 variant 1]
[1]; listed as sequence variant 1
  Growth inhibition of FNN23: inhibited the growth
[3]
  Growth inhibition of FNN25: effective in strains susceptible to FUS79
[4]
  Growth inhibition of FNA: effective in strains susceptible to FUS79
[5]
  Growth inhibition of FNP: effective in strains susceptible to FUS79
[6]
  Growth inhibition of FPE: effective in strains susceptible to FUS79

## RXRRXRRXRRXRXB [(RXR)4XB-ftsZ, (RXR)4XB conjugated to 10mer PNA … targeting ftsZ]
[2]; listed as (RXR)4XB-PNA targeting ftsZ
  Bactericidal effect (viable cells, CFU) on FNN23: could not observe a CFU reduction

## RXRRXRRXRRXRXB [(RXR)4XB-trpB, (RXR)4XB conjugated to 11mer PNA … complementary to trpB TIR]
[1]
  Growth inhibition of FNN23: did not result in growth impairment

## GACATAATTGT [PNA79, FUS79 without the (RXR)4XB module, PNA …]
[1]
  Growth inhibition of FNN23: only the original FUS79 as well as sequence variant 1 conjugated to full-length (RXR)4XB inhibited the growth

## RXRRXRRXRXB [(RXR)3XB-PNA79, PNA … with shortened CPP module RXRRXRRXRXB]
[1]
  Growth inhibition of FNN23: only the original FUS79 as well as sequence variant 1 conjugated to full-length (RXR)4XB inhibited the growth

## KFFKFFKFFK (GACATAATTGT; all phosphorodiamidate morpholino (PMO); (KFF)3K peptide conjugated via azide-cyclooctyne click, attachment end not given here) [(KFF)3K-PMO79, (KFF)3K conjugated to 11mer PMO …]
[1]
  Growth inhibition of FNN23: did not inhibit the growth

## Polymyxin B [reference compound]
[2]
  Bactericidal effect (viable cells, CFU) on FNN23: fully diminished CFUs after 96 h

## CC[C@H](C)[C@H](NC(=O)[C@H](CCCNC(=N)N)NC(=O)[C@H](CCCNC(=N)N)NC(=O)[C@H](CC(C)C)NC(=O)[C@H](Cc1c[nH]c2ccccc12)NC(=O)[C@H](C)NC(=O)[C@H](CCCCN)NC(=O)[C@@H](NC(=O)[C@H](CCCNC(=N)N)NC(=O)[C@H](CCCNC(=N)N)NC(=O)[C@H](CC(C)C)NC(=O)[C@@H](N)Cc1c[nH]c2ccccc12)[C@@H](C)CC)C(=O)N[C@@H](CCCCN)C(=O)N[C@@H](C)C(=O)N[C@@H](CC(C)C)C(=O)N[C@@H](CC(N)=O)C(=O)N[C@@H](CCCNC(=N)N)C(=O)N[C@@H](CCC(N)=O)C(=O)N[C@@H](CC(C)C)C(=O)NCC(=O)N[C@H](C(=O)N[C@@H](C)C(=O)N[C@@H](C)C(=O)O)C(C)C [Seq471]
[7]
  Cytotoxicity in HeLa cells: without notable cytotoxicity
